Results: the supplement of paper PMC11061612

Columns and labels:
[1] = system: KYM-1 (Rhabdomyosarcoma); assay: Bliss excess, mean over the matrix (fraction); higher = more synergy
How it was run: (§1)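 Cell lines grown in DMEM/F12 or RPMI with 10% FBS were plated in 1536-well plates and held 24 hours at 37°C, 5% CO2 before 72 hours of exposure to two-drug dose matrices, with DMSO typically at 0.2%. CellTiter-Glo 2.0 luminescence gave viability, which was converted to inhibition. Vehicle wells were set to 0 and blank wells to 1. Combination Emax is the second-highest inhibition in the matrix, and Bliss excess is the observed combination effect minus the expected EA + EB − EA·EB, where EA and EB are the single-agent effects.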

[2] = system: SK-MM-2 (Plasma Cell Myeloma); assay: as above
How it was run: as §1

[3] = system: COLO-684 (Endometrial Carcinoma); assay: as above
How it was run: as §1

[4] = system: PANC-02-03 (Pancreatic Carcinoma); assay: as above
How it was run: as §1

[5] = system: PC-14 (Lung Adenocarcinoma); assay: as above
How it was run: as §1

[6] = system: KYSE-70 (Esophageal Squamous Cell Carcinoma); assay: as above
How it was run: as §1

[7] = system: HCC-44 (Lung Adenocarcinoma); assay: as above
How it was run: as §1

[8] = system: Becker (Low Grade Glioma); assay: as above
How it was run: as §1

[9] = system: NCI-H810 (Non-Small Cell Lung Carcinoma); assay: as above
How it was run: as §1

[10] = system: NCI-H1755 (Lung Adenocarcinoma); assay: as above
How it was run: as §1

[11] = system: FLO-1 (Esophageal Adenocarcinoma); assay: as above
How it was run: as §1

[12] = system: NKM-1 (Acute Myeloid Leukemia); assay: as above
How it was run: as §1

[13] = system: LAMA-84 (Chronic Myelogenous Leukemia); assay: as above
How it was run: as §1

[14] = system: RMG-I (Ovarian Carcinoma); assay: as above
How it was run: as §1

[15] = system: EB-3 (Burkitt's Lymphoma); assay: as above
How it was run: as §1

[16] = system: SW684 (Other Solid Carcinomas); assay: as above
How it was run: as §1

[17] = system: CML-T1 (Chronic Myelogenous Leukemia); assay: as above
How it was run: as §1

[18] = system: LOUCY (T-Lymphoblastic Leukemia); assay: as above
How it was run: as §1

[19] = system: OV-90 (Ovarian Carcinoma); assay: as above
How it was run: as §1

[20] = system: CHL-1 (Melanoma); assay: as above
How it was run: as §1

[21] = system: KYM-1 (Rhabdomyosarcoma); assay: combination Emax (second highest fraction inhibited in the dose matrix, 72 h); higher = more inhibition; extreme values may be limits of the assay
How it was run: as §1

[22] = system: SK-MM-2 (Plasma Cell Myeloma); assay: as above
How it was run: as §1

[23] = system: COLO-684 (Endometrial Carcinoma); assay: as above
How it was run: as §1

[24] = system: PANC-02-03 (Pancreatic Carcinoma); assay: as above
How it was run: as §1

[25] = system: PC-14 (Lung Adenocarcinoma); assay: as above
How it was run: as §1

[26] = system: KYSE-70 (Esophageal Squamous Cell Carcinoma); assay: as above
How it was run: as §1

[27] = system: HCC-44 (Lung Adenocarcinoma); assay: as above
How it was run: as §1

[28] = system: Becker (Low Grade Glioma); assay: as above
How it was run: as §1

[29] = system: NCI-H810 (Non-Small Cell Lung Carcinoma); assay: as above
How it was run: as §1

[30] = system: NCI-H1755 (Lung Adenocarcinoma); assay: as above
How it was run: as §1

[31] = system: FLO-1 (Esophageal Adenocarcinoma); assay: as above
How it was run: as §1

[32] = system: NKM-1 (Acute Myeloid Leukemia); assay: as above
How it was run: as §1

[33] = system: LAMA-84 (Chronic Myelogenous Leukemia); assay: as above
How it was run: as §1

[34] = system: RMG-I (Ovarian Carcinoma); assay: as above
How it was run: as §1

[35] = system: EB-3 (Burkitt's Lymphoma); assay: as above
How it was run: as §1

[36] = system: SW684 (Other Solid Carcinomas); assay: as above
How it was run: as §1

[37] = system: CML-T1 (Chronic Myelogenous Leukemia); assay: as above
How it was run: as §1

[38] = system: LOUCY (T-Lymphoblastic Leukemia); assay: as above
How it was run: as §1

[39] = system: OV-90 (Ovarian Carcinoma); assay: as above
How it was run: as §1

[40] = system: CHL-1 (Melanoma); assay: as above
How it was run: as §1
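For Bliss excess, mean over the matrix in this document: after 72 h of two-drug dosing.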

`O=C(c1cc(Cc2n[nH]c(=O)c3ccccc23)ccc1F)N1CCN(C(=O)C2CC2)CC1` [Olaparib] + CC1(C)CCC(CN2CCN(c3ccc(C(=O)NS(=O)(=O)c4ccc(NCC5CCOCC5)c([N+](=O)[O-])c4)c(Oc4cnc5[nH]ccc5c4)c3)CC2)=C(c2ccc(Cl)cc2)C1 [Venetoclax] (first compound max 10 µM, 7x7, partner max 1 µM) gave a Bliss excess [1] of -0.0388, a Bliss excess [2] of 0.0141 and a Bliss excess [3] of -0.0346. It also gave a Bliss excess [4] of -0.0386, a Bliss excess [5] of -0.0071 and a Bliss excess [6] of -0.039. The Bliss excess [7] was -0.0278, the Bliss excess [8] was -0.0134 and the Bliss excess [9] was -0.0541. It also gave a Bliss excess [10] of -0.0395, a Bliss excess [11] of -0.0251 and a Bliss excess [12] of 0.257. For the same compound, the Bliss excess [13] was -0.003, the Bliss excess [14] was -0.0398 and the Bliss excess [15] was -0.0328. It also gave a Bliss excess [16] of -0.0606, a Bliss excess [17] of 0.0685 and a Bliss excess [18] of 0.0365. The Bliss excess [19] was -0.0377, the Bliss excess [20] was -0.0355 and the “combination Emax” value [21] was 0.446. For the same compound, the “combination Emax” value [22] was 1, the “combination Emax” value [23] was 0.259 and the “combination Emax” value [24] was 0.107. The “combination Emax” value [25] was 0.142, the “combination Emax” value [26] was 0.0967 and the “combination Emax” value [27] was 0.177. For the same compound, the “combination Emax” value [28] was 0.198, the “combination Emax” value [29] was 0.271 and the “combination Emax” value [30] was 0.126. For the same compound, the “combination Emax” value [31] was 0.209, the “combination Emax” value [32] was 0.976 and the “combination Emax” value [33] was 0.211. The “combination Emax” value [34] was 0.282, the “combination Emax” value [35] was 0.162 and the “combination Emax” value [36] was 0.141. The “combination Emax” value [37] was 0.946, the “combination Emax” value [38] was 1 and the “combination Emax” value [39] was 0.204. The “combination Emax” value [40] was 0.171.
`N#Cc1cnc(Nc2cc(NC[C@H]3CNCCO3)c(C(F)(F)F)cn2)cn1` [SRA737] + C=CCn1c(=O)c2cnc(Nc3ccc(N4CCN(C)CC4)cc3)nc2n1-c1cccc(C(C)(C)O)n1 [AZD1775] (first compound max 10 µM, partner max 1 µM) gave a Bliss excess [1] of 0.0382, a Bliss excess [2] of 0.0284 and a Bliss excess [3] of 0.0602. The Bliss excess [4] was -0.0172, the Bliss excess [5] was 0.0602 and the Bliss excess [6] was 0.0613. For the same compound, the Bliss excess [7] was 0.0685, the Bliss excess [8] was 0.176 and the Bliss excess [9] was 0.0718. For the same compound, the Bliss excess [10] was -0.0377, the Bliss excess [11] was -0.0189 and the Bliss excess [12] was 0.0732. The Bliss excess [13] was 0.0718, the Bliss excess [14] was -0.0477 and the Bliss excess [15] was 0.0314. The Bliss excess [16] was -0.0677, the Bliss excess [17] was 0.0611 and the Bliss excess [18] was 0.138. For the same compound, the Bliss excess [19] was -0.0401, the Bliss excess [20] was 0.0512 and the “combination Emax” value [21] was 0.947. The “combination Emax” value [22] was 0.452, the “combination Emax” value [23] was 0.864 and the “combination Emax” value [24] was 0.42. The “combination Emax” value [25] was 0.882, the “combination Emax” value [26] was 0.561 and the “combination Emax” value [27] was 0.732. The “combination Emax” value [28] was 0.705, the “combination Emax” value [29] was 0.81 and the “combination Emax” value [30] was 0.77. The “combination Emax” value [31] was 0.803, the “combination Emax” value [32] was 0.976 and the “combination Emax” value [33] was 0.943. For the same compound, the “combination Emax” value [34] was 0.35, the “combination Emax” value [35] was 0.798 and the “combination Emax” value [36] was 0.277. The “combination Emax” value [37] was 1, the “combination Emax” value [38] was 1 and the “combination Emax” value [39] was 0.425. For the same compound, the “combination Emax” value [40] was 0.837.
`C[C@@H](Oc1cc(-c2cnn(C3CCNCC3)c2)cnc1N)c1c(Cl)ccc(F)c1Cl` [Crizotinib] + CC1=C(C(=CC=C1)Cl)NC(=O)C2=CN=C(S2)NC3=CC(=NC(=N3)C)N4CCN(CC4)CCO [Dasatinib] (first compound max 10 µM, 7x7, partner max 2 µM) was tested, and the Bliss excess [1] was -0.0389, the Bliss excess [2] was -0.0416 and the Bliss excess [3] was -0.049. For the same compound, the Bliss excess [4] was -0.0328, the Bliss excess [5] was 0.0183 and the Bliss excess [6] was -0.0068. For the same compound, the Bliss excess [7] was 0.101, the Bliss excess [8] was 0.1 and the Bliss excess [9] was -0.0726. It also gave a Bliss excess [10] of 0.0591, a Bliss excess [11] of 0.0436 and a Bliss excess [12] of -0.0197. For the same compound, the Bliss excess [13] was 0.0136, the Bliss excess [14] was 0.0034 and the Bliss excess [15] was -0.0181. For the same compound, the Bliss excess [16] was 0.0215, the Bliss excess [17] was -0.0958 and the Bliss excess [18] was -0.0383. The Bliss excess [19] was 0.0304, the Bliss excess [20] was -0.0401 and the “combination Emax” value [21] was 0.917. The “combination Emax” value [22] was 0.303, the “combination Emax” value [23] was 0.41 and the “combination Emax” value [24] was 0.606. For the same compound, the “combination Emax” value [25] was 1, the “combination Emax” value [26] was 0.423 and the “combination Emax” value [27] was 0.962. For the same compound, the “combination Emax” value [28] was 0.648, the “combination Emax” value [29] was 0.244 and the “combination Emax” value [30] was 0.983. For the same compound, the “combination Emax” value [31] was 1, the “combination Emax” value [32] was 0.971 and the “combination Emax” value [33] was 1. For the same compound, the “combination Emax” value [34] was 0.737, the “combination Emax” value [35] was 0.639 and the “combination Emax” value [36] was 0.758. The “combination Emax” value [37] was 0.987, the “combination Emax” value [38] was 0.674 and the “combination Emax” value [39] was 0.591. The “combination Emax” value [40] was 0.349.
Work on `C[C@@H](Nc1cc(F)cc(F)c1)c1cc(C(=O)N(C)C)cc2c(=O)cc(N3CCOCC3)oc12` [AZD8186] + CC(=O)c1c(C)c2cnc(Nc3ccc(N4CCNCC4)cn3)nc2n(C2CCCC2)c1=O [Palbociclib] (first compound max 10 µM, 7x7, partner max 10 µM) yielded a Bliss excess [1] of -0.031, a Bliss excess [2] of 0.0299 and a Bliss excess [3] of 0.0174. For the same compound, the Bliss excess [4] was -0.0157, the Bliss excess [5] was 0.0852 and the Bliss excess [6] was -0.0106. The Bliss excess [7] was 0.0091, the Bliss excess [8] was 0.127 and the Bliss excess [9] was -0.0224. For the same compound, the Bliss excess [10] was 0.069, the Bliss excess [11] was 0.0479 and the Bliss excess [12] was -0.0435. For the same compound, the Bliss excess [13] was 0.083, the Bliss excess [14] was 0.0104 and the Bliss excess [15] was 0.0129. For the same compound, the Bliss excess [16] was -0.0005, the Bliss excess [17] was -0.0045 and the Bliss excess [18] was 0.187. For the same compound, the Bliss excess [19] was -0.0541, the Bliss excess [20] was 0.0104 and the “combination Emax” value [21] was 0.702. For the same compound, the “combination Emax” value [22] was 0.35, the “combination Emax” value [23] was 0.729 and the “combination Emax” value [24] was 0.343. The “combination Emax” value [25] was 0.469, the “combination Emax” value [26] was 0.355 and the “combination Emax” value [27] was 0.728. For the same compound, the “combination Emax” value [28] was 0.628, the “combination Emax” value [29] was 0.371 and the “combination Emax” value [30] was 0.602. For the same compound, the “combination Emax” value [31] was 0.599, the “combination Emax” value [32] was 0.83 and the “combination Emax” value [33] was 0.554. The “combination Emax” value [34] was 0.497, the “combination Emax” value [35] was 0.399 and the “combination Emax” value [36] was 0.503. For the same compound, the “combination Emax” value [37] was 0.931, the “combination Emax” value [38] was 0.504 and the “combination Emax” value [39] was 0.137. For the same compound, the “combination Emax” value [40] was 0.458.
